A short description of this series: gradient 5% acetonitrile 3 min, to 50% in 2 min, to 85% in 15 min, held 3 min, 100 µL/min. The following applies: column: Zorbax Extend-C18 2.1 x 50 mm; eluents: water / acetonitrile, 0.1% formic acid. The gist of the method:
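The system's dead and dwell volumes were 40 μL and 900 μL, with a Zorbax Extend-C18 column (2.1 × 50 mm, 1.8 μm) run at 100 μL/min in water and acetonitrile containing 0.1% formic acid each. Pure standards were analyzed in mixtures of ~100 molecules by HPLC–quadrupole time-of-flight mass spectrometry in positive and negative ionization mode. Retention time was assigned from computationally picked, manually inspected adduct peaks.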
In turn, `Cc1ccc(N2C(=O)C3N=NN(Cc4nc(-c5ccccc5C)no4)C3C2=O)cc1C` (stereo not drawn) came in with an RP-LC retention time of 1060 s. In turn, `Fc1ccccc1CNc1cc(-n2cccn2)ncn1` came in with an RP-LC retention time of 838 s. The molecule `COc1ccc(-c2nnc(-c3cccc([N+](=O)[O-])c3)o2)cc1` showed an RP-LC retention time of 898 s. Regarding `CCOC(=O)c1c(CN(C)C)n(-c2ccccc2)c2cc(-c3cccnc3)c(O)cc12`, the RP-LC retention time worked out at 576 s.

For the molecule `O=C(O)c1cccn2c(=O)c3ccc(F)cc3nc12`, the RP-LC retention time was 687 s. Regarding `CCN1CCN(c2cc(C(=O)O)c3cc(NC(=O)c4ccc(Br)cc4)ccc3n2)CC1`, the RP-LC retention time is 610 s. To `COc1ccc(NC(C)=O)cc1NS(=O)(=O)C1CC1` belongs 607 s. To `CC(=O)N1CCc2cc(N3CC(C(=O)N(C)Cc4ccccc4)CC3=O)ccc21` (stereo not drawn) belongs 697 s.

For `CN1c2cc(Cl)ccc2C(=O)NC12CCN(C(=O)Nc1cccc(F)c1)CC2`, the RP-LC retention time was 831 s.

As to `COCCCNC(=O)c1ccc2c(c1)N(Cc1ccc(F)cc1)C(=O)CO2`, the RP-LC retention time stood at 711 s. To `COc1ccc(NC(=O)N2CCCC2c2nncn2C2CCCC2)c(OC)c1` (stereo not drawn) belongs 662 s.

The molecule `Cc1oc(C2CCN(S(=O)(=O)c3cccc(F)c3)CC2)nc1C(=O)N(C)C` displayed an RP-LC retention time of 798 s. `COc1ccc(OC)c(S(=O)(=O)NCC2(C)CCOCC2)c1` yielded an RP-LC retention time of 686 s. With `COc1ccc2[nH]cc(CCN3CC(C(=O)Nc4cccc(C)c4C)CC3=O)c2c1` (stereo not drawn) the figure was 771 s. Turning to `Cc1cc2c(cc1S(=O)(=O)N1CCCC1C(=O)Nc1ccccc1)OC(C)C(=O)N2` (stereo not drawn), the RP-LC retention time turned out to be 777 s. Molecule `Cc1ccc(-c2nnc(CC(=O)NC(C)CCc3ccccc3)o2)cc1` (stereo not drawn) yielded an RP-LC retention time of 840 s. With `CCn1c(C(=O)NCCCN2CCCC2=O)c(N2CCCC2=O)c2cc(F)ccc21` the figure was 700 s; with `COc1ccc(-n2c(C)nc3ccc(NC(=O)c4cccc([N+](=O)[O-])c4C)cc3c2=O)cc1`, 779 s. To `Cc1cc(S(=O)(=O)N2CCc3nn(C)c(=O)n3CC2)ccc1Cl` belongs 744 s; to `CC1=CC(=O)C2=C(C)C[C@H](O)[C@H]3[C@H](C)C(=O)O[C@@H]3C12` (stereo partly drawn), 725 s. With `Cc1cccc(Oc2nccnc2N2CCC(C(=O)NCCC3=CCCCC3)CC2)c1` the figure was 1130 s; with `CCN1CCCn2cc(S(=O)(=O)NCc3ccc(OC)cc3)cc2C1=O`, 698 s. With `Cc1ccc(CCNC(=O)Cn2nc(-n3cccc3)c3c(C)cc(C)nc32)cc1`, the RP-LC retention time came out at 1070 s. Take `O=C1/C(=C\c2cccs2)Oc2ccccc21`: the RP-LC retention time was determined as 958 s.

`CNc1nc(Nc2ccccc2F)nc2ccccc12` returned an RP-LC retention time of 634 s. Consider `O=C(Nc1ccccc1C(F)(F)F)N1CCCC(Cn2cnc3cccnc32)C1` (stereo not drawn), for which the RP-LC retention time was determined as 680 s. With `COc1ccc(C2(C(=O)NCC34CCCC=C3NC(=O)CC4)CC2)cc1` (stereo not drawn) the figure was 776 s; with `COc1cc2ncc(C(=O)c3ccccc3)c(N3CCN(C)CC3)c2cc1OC`, 556 s. With `CCOC(=O)c1cccc(N2C=C(C#N)S(=O)(=O)c3ccccc32)c1` the figure was 898 s; with `CCOc1ccc(-c2csc(NC(=O)CCc3ccccc3)n2)cc1`, 1120 s; with `CCc1ccc(CNC(=O)C2CCCN(C(=O)c3[nH]c(C)c(C(=O)OC)c3C)C2)cc1` (stereo not drawn), 845 s. `COc1cc(NC(=O)CCc2c(-c3ccccc3)nc3ccccn23)cc(OC)c1` had an RP-LC retention time of 671 s. `O=C(Nc1ccc(F)cc1)C1CC(=O)N(c2n[nH]c3cccc(F)c23)C1` (stereo not drawn) returned an RP-LC retention time of 740 s.

The values are drawn from the METLIN SMRT retention time set (Domingo-Almenara et al. 2019).
